Paper PMC10303271, “Synthesis and Receptor Binding Studies of α5 GABAAR Selective Novel Imidazodiazepines Targeted for Psychiatric and Cognitive Disorders” (Molecules, 2023)

Key:
A1 = biological target: T1, A1 (Homo sapiens, UniProt P30542); assay: PDSP primary binding A1; conditions: 1.5 h; primary binding, 10,000 nM; last figure of the line = mean of the 4 before it; read-out: A1, PDSP raw data, mean
T1 construct: purchased NIMH Psychoactive Drug Screening Program (PDSP)
T1 sequence (P30542 1-326): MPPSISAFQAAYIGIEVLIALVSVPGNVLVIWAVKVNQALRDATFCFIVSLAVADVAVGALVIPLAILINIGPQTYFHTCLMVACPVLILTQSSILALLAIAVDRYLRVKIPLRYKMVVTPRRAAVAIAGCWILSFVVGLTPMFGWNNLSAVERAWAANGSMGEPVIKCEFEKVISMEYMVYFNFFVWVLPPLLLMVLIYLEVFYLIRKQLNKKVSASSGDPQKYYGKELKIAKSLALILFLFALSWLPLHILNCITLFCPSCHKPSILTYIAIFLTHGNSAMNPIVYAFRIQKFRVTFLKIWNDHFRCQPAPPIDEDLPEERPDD
Method: (§1) To determine if any off-target receptor-binding effects are present, all the novel ligands were sent to the National Institute of Mental Health (NIMH), Psychoactive Drug Screening Program (PDSP). The ligands were screened over a panel of 47 receptors, ion channels, and transporters to determine any other possible interactions with […]. The hERG-binding was also determined. […] No binding of the test compounds to calcium channels was observed. […] It is necessary to screen the compounds for hERG-binding during the early process of drug discovery. The unintentional binding of many drugs to hERG can cause blockade of hERG K+ channels in the heart, which can cause many side effects including cardiac arrhythmias and sudden death. […] All of the α5 imidazodiazepines were tested for hERG-binding.
(§2) The NIMH PDSP assay protocol book [https://kidbdev.med.unc.edu/databases/PDSP%20Protocols%20II%202013-03-28.pdf accessed on 23 April 2023]. describes the protocols for primary and secondary radio-ligand binding assays. These assays were carried out in a final volume of 125 µL per well in the appropriate binding buffer.
(§3) The binding of a ligand to a receptor, ion channel, or transporter was determined in the […] of 10 µM of the appropriate reference compound. […] Plates were incubated in the dark for 90 min at rt, and the reactions were stopped by vacuum filtration onto 0.3% polyethyleneimine (PEI) soaked 96-well filter mats using a 96-well Filtermateharvester. This was followed by three washes with cold PBS buffer. Radioactivity was then counted on a Microbeta counter. Nonlinear regression was used to analyze the data with N = 6 replicates.

D5 = biological target: T2, D5 (Homo sapiens, UniProt P21918); assay: PDSP primary binding D5; conditions: 1.5 h; primary binding, 10,000 nM; last figure of the line = mean of the 4 before it; read-out: D5, PDSP raw data, mean
T2 construct: purchased NIMH Psychoactive Drug Screening Program (PDSP)
T2 sequence (P21918 whole entry): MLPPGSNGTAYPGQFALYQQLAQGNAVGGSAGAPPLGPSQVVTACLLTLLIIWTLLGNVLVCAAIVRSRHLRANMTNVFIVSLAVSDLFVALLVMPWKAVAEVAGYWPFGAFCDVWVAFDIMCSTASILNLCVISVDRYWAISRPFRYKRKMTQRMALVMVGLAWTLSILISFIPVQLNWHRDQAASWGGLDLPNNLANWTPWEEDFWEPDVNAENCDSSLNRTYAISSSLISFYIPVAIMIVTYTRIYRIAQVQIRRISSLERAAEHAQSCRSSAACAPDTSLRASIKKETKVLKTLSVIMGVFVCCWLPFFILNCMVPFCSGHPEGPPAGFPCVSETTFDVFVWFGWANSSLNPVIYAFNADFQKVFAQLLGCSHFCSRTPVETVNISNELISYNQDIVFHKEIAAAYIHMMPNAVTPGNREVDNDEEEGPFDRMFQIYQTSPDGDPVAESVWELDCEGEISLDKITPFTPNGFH
Method: as §1, §2, §3

Alpha4Beta2 = biological target: T3, Alpha4Beta2 (Rattus norvegicus, UniProt P09483+P12390); assay: PDSP primary binding Alpha4Beta2; conditions: primary binding, 10,000 nM; last figure of the line = mean of the 4 before it; read-out: Alpha4Beta2, PDSP raw data, mean
T3 construct: purchased NIMH Psychoactive Drug Screening Program (PDSP)
T3 sequence (P09483 31-630): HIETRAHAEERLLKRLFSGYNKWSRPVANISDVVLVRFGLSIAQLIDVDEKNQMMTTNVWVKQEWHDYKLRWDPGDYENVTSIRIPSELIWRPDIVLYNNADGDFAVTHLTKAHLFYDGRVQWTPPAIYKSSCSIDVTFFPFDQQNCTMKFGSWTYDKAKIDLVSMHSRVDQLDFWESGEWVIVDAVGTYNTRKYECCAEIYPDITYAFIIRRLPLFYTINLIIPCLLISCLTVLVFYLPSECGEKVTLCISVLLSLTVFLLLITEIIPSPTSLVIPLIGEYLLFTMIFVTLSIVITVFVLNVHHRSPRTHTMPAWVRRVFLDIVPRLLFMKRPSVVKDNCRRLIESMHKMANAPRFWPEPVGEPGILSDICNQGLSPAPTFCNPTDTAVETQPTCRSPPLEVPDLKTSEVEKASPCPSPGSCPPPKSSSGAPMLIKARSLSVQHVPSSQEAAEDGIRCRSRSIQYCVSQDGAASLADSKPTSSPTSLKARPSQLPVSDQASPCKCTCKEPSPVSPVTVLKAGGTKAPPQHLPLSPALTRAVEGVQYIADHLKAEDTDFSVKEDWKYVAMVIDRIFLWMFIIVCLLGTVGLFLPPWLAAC
T3 sequence (P12390 25-500): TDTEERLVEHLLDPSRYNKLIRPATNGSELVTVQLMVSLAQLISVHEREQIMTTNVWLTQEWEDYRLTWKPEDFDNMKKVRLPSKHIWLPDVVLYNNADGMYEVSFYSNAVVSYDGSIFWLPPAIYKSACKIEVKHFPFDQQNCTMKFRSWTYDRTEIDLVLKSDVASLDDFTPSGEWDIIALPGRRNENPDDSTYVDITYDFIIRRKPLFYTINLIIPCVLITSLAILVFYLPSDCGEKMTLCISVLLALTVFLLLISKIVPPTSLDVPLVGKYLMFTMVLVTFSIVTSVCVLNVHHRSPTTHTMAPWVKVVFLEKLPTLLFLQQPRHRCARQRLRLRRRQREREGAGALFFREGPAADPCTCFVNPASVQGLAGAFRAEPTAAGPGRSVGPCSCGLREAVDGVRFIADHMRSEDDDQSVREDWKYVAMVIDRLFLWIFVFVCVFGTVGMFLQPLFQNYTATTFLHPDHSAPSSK
Method: as §1, §2, §3

5-HT4 = biological target: T4, 5-HT4 (Homo sapiens, UniProt Q13639); assay: PDSP primary binding 5-HT4; conditions: 1.5 h; primary binding, 10,000 nM; last figure of the line = mean of the 4 before it; read-out: 5-HT4, PDSP raw data, mean
T4 construct: purchased NIMH Psychoactive Drug Screening Program (PDSP)
T4 sequence (Q13639 whole entry): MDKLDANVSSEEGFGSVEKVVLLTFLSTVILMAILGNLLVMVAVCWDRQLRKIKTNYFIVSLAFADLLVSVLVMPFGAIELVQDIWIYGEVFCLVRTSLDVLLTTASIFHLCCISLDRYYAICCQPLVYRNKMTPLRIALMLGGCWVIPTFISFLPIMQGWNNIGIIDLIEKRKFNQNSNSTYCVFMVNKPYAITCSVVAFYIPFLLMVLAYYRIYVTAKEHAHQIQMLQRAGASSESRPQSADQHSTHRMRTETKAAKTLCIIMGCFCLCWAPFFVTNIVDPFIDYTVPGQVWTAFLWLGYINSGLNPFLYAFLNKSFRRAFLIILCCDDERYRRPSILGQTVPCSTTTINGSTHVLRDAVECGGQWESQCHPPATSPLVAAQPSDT
Method: as §1, §2, §3

5-HT1A = biological target: T5, 5-HT1A (Homo sapiens, UniProt P08908); assay: PDSP primary binding 5-HT1A; conditions: 1.5 h; primary binding, 10,000 nM; last figure of the line = mean of the 4 before it; read-out: 5-HT1A, PDSP raw data, mean
T5 construct: purchased NIMH Psychoactive Drug Screening Program (PDSP)
T5 sequence (P08908 1-422): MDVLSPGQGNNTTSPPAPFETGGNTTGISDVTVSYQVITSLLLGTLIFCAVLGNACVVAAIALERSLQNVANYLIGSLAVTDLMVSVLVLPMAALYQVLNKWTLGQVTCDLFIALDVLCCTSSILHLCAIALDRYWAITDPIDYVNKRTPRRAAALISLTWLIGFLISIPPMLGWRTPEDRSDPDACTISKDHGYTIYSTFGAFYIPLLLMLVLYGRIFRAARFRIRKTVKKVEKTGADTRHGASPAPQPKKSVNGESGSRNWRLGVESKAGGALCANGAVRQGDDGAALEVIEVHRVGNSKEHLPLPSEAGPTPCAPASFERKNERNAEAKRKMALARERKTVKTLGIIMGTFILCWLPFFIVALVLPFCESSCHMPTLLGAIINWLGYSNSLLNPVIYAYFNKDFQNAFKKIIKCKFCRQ
Method: as §1, §2, §3

M1 = biological target: T6, M1 (Homo sapiens, UniProt P11229); assay: PDSP primary binding M1; conditions: primary binding, 10,000 nM; last figure of the line = mean of the 4 before it; read-out: M1, PDSP raw data, mean
T6 construct: purchased NIMH Psychoactive Drug Screening Program (PDSP)
T6 sequence (P11229 1-460): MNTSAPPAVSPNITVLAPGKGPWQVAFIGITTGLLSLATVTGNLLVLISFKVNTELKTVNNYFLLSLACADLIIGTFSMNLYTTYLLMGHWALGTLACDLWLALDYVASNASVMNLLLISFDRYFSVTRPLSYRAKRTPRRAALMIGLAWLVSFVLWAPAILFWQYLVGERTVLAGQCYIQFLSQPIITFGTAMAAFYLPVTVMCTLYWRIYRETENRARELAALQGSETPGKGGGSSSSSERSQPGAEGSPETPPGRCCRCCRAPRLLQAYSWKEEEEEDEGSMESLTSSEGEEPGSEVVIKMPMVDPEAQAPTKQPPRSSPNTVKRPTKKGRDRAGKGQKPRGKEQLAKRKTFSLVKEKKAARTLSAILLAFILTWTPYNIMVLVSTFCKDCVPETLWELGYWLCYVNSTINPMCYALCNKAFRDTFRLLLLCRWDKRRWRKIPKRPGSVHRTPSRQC
Method: as §1, §2, §3

Beta1 = biological target: T7, Beta1 (Homo sapiens, UniProt P08588); assay: PDSP primary binding Beta1; conditions: 1.5 h; primary binding, 10,000 nM; last figure of the line = mean of the 4 before it; read-out: Beta1, PDSP raw data, mean
T7 construct: purchased NIMH Psychoactive Drug Screening Program (PDSP)
T7 sequence (P08588 whole entry): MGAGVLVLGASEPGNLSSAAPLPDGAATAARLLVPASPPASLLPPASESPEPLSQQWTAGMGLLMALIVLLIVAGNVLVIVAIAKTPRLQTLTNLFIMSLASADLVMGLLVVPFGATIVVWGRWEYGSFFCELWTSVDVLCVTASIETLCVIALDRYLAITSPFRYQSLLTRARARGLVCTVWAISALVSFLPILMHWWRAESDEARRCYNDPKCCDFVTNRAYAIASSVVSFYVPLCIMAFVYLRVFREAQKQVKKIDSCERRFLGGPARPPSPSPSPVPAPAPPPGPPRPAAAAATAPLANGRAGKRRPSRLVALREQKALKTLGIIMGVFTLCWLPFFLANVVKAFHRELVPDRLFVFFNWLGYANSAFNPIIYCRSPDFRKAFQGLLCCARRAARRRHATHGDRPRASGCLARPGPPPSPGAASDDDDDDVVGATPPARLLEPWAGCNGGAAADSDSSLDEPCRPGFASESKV
Method: as §1, §2, §3

Beta3 = biological target: T8, Beta3 (Homo sapiens, UniProt P13945); assay: PDSP primary binding Beta3; conditions: 1.5 h; primary binding, 10,000 nM; last figure of the line = mean of the 4 before it; read-out: Beta3, PDSP raw data, mean
T8 construct: purchased NIMH Psychoactive Drug Screening Program (PDSP)
T8 sequence (P13945 whole entry): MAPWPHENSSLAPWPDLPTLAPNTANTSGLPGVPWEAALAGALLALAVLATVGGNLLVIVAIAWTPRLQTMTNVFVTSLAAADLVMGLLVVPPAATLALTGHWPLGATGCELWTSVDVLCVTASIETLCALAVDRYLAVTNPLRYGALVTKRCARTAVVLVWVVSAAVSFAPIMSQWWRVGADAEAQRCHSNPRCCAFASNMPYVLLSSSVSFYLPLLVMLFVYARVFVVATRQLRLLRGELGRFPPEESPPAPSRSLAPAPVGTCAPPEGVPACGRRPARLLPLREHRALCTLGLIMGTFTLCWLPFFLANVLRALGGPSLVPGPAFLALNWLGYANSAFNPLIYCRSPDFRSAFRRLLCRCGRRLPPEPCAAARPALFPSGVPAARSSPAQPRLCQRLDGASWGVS
Method: as §1, §2, §3

D1 = biological target: T9, D1 (Homo sapiens, UniProt P21728); assay: PDSP primary binding D1; conditions: 1.5 h; primary binding, 10,000 nM; last figure of the line = mean of the 4 before it; read-out: D1, PDSP raw data, mean
T9 construct: purchased NIMH Psychoactive Drug Screening Program (PDSP)
T9 sequence (P21728 whole entry): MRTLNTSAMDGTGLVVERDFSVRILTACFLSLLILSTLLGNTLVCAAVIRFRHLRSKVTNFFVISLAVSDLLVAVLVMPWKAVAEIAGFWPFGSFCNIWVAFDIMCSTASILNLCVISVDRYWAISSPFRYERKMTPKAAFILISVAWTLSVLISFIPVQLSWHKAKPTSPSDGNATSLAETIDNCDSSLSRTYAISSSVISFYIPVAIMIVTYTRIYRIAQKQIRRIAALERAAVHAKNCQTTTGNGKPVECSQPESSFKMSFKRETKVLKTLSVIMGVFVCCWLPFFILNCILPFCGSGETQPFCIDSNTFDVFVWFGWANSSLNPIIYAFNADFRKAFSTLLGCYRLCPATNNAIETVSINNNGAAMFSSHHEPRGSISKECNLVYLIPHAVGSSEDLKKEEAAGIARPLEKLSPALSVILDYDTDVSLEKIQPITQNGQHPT
Method: as §1, §2, §3

Row | SMILES | inhibition at 10 µM (A1) [%] | inhibition at 10 µM (D5) [%] | inhibition at 10 µM (Alpha4Beta2) [%] | inhibition at 10 µM (5-HT4) [%] | inhibition at 10 µM (5-HT1A) [%] | inhibition at 10 µM (M1) [%] | inhibition at 10 µM (Beta1) [%] | inhibition at 10 µM (Beta3) [%] | inhibition at 10 µM (D1) [%]
1 | C[C@H]1N=C(c2ccccc2F)c2cc(-c3ccccc3)ccc2-n2cnc(C(=O)N(C)C)c21 [Compound 5, (R)-6-(2′-Fluorophenyl)-N,N,4-trimethyl-8-phenyl-4H-benzo[f]imidazo[1,5-a][1,4]diazepine-3-carboxamide] | 25.9 | 1.22 | -1.65 | -14.4 | 2.37 | -1.6 | -15.8 | -19.4 | -35.4
2 | C#Cc1ccc2c(c1)C(c1ccccc1Cl)=N[C@H](C)c1c(C(=O)NC)ncn1-2 [Compound 21, (R)-6-(2′-Chlorophenyl)-8-ethynyl-N,4-dimethyl-4H-benzo[f]imidazo[1,5-a][1,4]diazepine-3-carboxamide] | -13.3 | 12.2 | 4.88 | 4 | 4.88 | -8.29 | 13.1 | 10.7 | 9.47
3 | C#Cc1ccc2c(c1)C(c1ccccn1)=N[C@@H](C)c1c(C(=O)NC)ncn1-2 [Compound 23, (S)-8-Ethynyl-N,4-dimethyl-6-(pyridin-2′-yl)-4H-benzo[f]imidazo[1,5-a][1,4]diazepine-3-carboxamide] | 10.4 | -16.1 | -4.27 | -1.06 | 2.23 | -12 | -10.8 | 0.63 | -37.2
4 | C#Cc1ccc2c(c1)C(c1ccccc1Cl)=N[C@H](C)c1c(C(=O)N(C)CC)ncn1-2 [Compound 29] | -6.38 | -17.2 | -1.16 | -6.11 | -2.7 | 4.95 | 8.7 | 9.72 | -31.5
5 | C#Cc1ccc2c(c1)C(c1ccccn1)=N[C@@H](C)c1c(C(=O)N(C)C)ncn1-2 [Compound 31, (S)-8-Ethynyl-N,N,4-trimethyl-6-(pyridin-2′-yl)-4H-benzo[f]imidazo[1,5-a][1,4]diazepine-3-carboxamide] | 32.2 | -11.1 | -0.84 | -0.81 | -0.48 | -20 | -16.2 | -6.68 | -41.5
6 | C#Cc1ccc2c(c1)C(c1ccccc1F)=N[C@H](C)c1c(C(=S)N(C)C)ncn1-2 [Compound 33, (R)-8-Ethynyl-6-(2′-fluorophenyl)-N,N,4-trimethyl-4H-benzo[f]imidazo[1,5-a][1,4]diazepine-3-carbothioamide] | 25.9 | 1.22 | -1.65 | -14.4 | 2.37 | -1.6 | -15.8 | -19.4 | -35.4
7 | CCc1noc(-c2ncn3c2[C@@H](C)N=C(c2ccccc2F)c2cc(-c4ccccc4)ccc2-3)n1 [Compound 35, (R)-3-Ethyl-5-(6-(2′-fluorophenyl)-4-methyl-8-phenyl-4H-benzo[f]imidazo[1,5-a][1,4]diazepin-3-yl)-1,2,4-oxadiazole] | 27.1 | 23.6 | 0.7 | -0.48 | 28.9 | -1.63 | 0.99 | 27.9 | 29.2
8 | CCc1noc(-c2ncn3c2[C@@H](C)N=C(c2ccccc2F)c2cc(Cl)ccc2-3)n1 [Compound 36, (R)-5-(8-Chloro-6-(2′-fluorophenyl)-4-methyl-4H-benzo[f]imidazo[1,5-a][1,4]diazepin-3-yl)-3-ethyl-1,2,4-oxadiazole] | 67.9 | 3.16 | -1.38 | -12.3 | 3 | -0.27 | -14.7 | 1.76 | 42.8
9 | CC(C)c1noc(-c2ncn3c2[C@@H](C)N=C(c2ccccc2F)c2cc(Cl)ccc2-3)n1 [Compound 37, (R)-5-(8-Chloro-6-(2′-fluorophenyl)-4-methyl-4H-benzo[f]imidazo[1,5-a][1,4]diazepin-3-yl)-3-isopropyl-1,2,4-oxadiazole] | 52.2 | 17.1 | 6.16 | 48 | -6 | -0.48 | 8.14 | 46 | 27.4
10 | C[C@H]1N=C(c2ccccc2F)c2cc(Cl)ccc2-n2cnc(-c3nc(C4CC4)no3)c21 [Compound 38, (R)-5-(8-Chloro-6-(2′-fluorophenyl)-4-methyl-4H-benzo[f]imidazo[1,5-a][1,4]diazepin-3-yl)-3-cyclopropyl-1,2,4-oxadiazole] | 55.5 | 14.1 | 1.67 | 38.7 | -1.57 | -0.23 | 9.95 | 24.2 | 43
